# Laboratory results published in ChEMBL document CHEMBL6109096, “Synthesis, anti-allergic rhinitis evaluation and mechanism investigation of novel 1,2,4-triazole-enamides as CB1 R antagonist” (Eur J Med Chem, 2025).
# Calls of active or inactive are those of the source. The calls are words filed in the database; no cut-off is given here.
# Key:
# Mus musculus [1] = assay: Anti-inflammatory activity in ovalbumin-induced allergic rhinitis male Balb/c mouse assessed as reduction in number of eosinophils on nasal lavage fluid at 150 mg/kg, po administered via gavage for 7 days by giemsa staining based analysis; assay type: functional, organism-based; conditions: time 7.0 day
# RAW264.7 [2] = assay: Anti-inflammatory activity in LPS-induced mouse RAW264.7 cells assessed as reduction in IL-6 mRNA expression incubated for 24 hrs by qRT-PCR analysis; assay type: functional, cell-based; conditions: dose 5-20 µM
# RAW264.7 [3] = assay: Inhibition of IL-1beta (unknown origin) in mouse RAW264.7 relative to control; assay type: cell-based; conditions: dose or concentration not given here
# RAW264.7 [4] = assay: Anti-inflammatory activity in LPS-induced mouse RAW264.7 cells assessed as reduction in TNF-alpha mRNA expression incubated for 24 hrs by qRT-PCR analysis; assay type: functional, cell-based; conditions: dose 5-20 µM
# Mus musculus [5] = assay: Anti-inflammatory activity in ovalbumin-induced allergic rhinitis male Balb/c mouse model assessed as reduction in sneezing administered orally via gavage for 7 days; assay type: functional, organism-based; conditions: dose 50-150 mg/kg, route po, time 7.0 day
# Mus musculus [6] = assay: Anti-inflammatory activity in ovalbumin-induced allergic rhinitis male Balb/c mouse model assessed as reduction in IL-4 expression in nasal lavage fluid at 50 to 150 mg/kg, po administered via gavage for 7 days by ELISA; assay type: functional, organism-based; conditions: dose 50-150 mg/kg, time 7.0 day
# Mus musculus [7] = assay: Anti-inflammatory activity in ovalbumin-induced allergic rhinitis male Balb/c mouse assessed as reduction in number of cells on nasal lavage fluid at 50 to 150 mg/kg, po administered via gavage for 7 days by giemsa staining based analysis; assay type: functional, organism-based; conditions: dose 50-150 mg/kg, time 7.0 day
# Mus musculus [8] = assay: Anti-inflammatory activity in ovalbumin-induced allergic rhinitis male Balb/c mouse model assessed as reduction in serum histamine expression at 50 to 150 mg/kg, po administered via gavage for 7 days by ELISA; assay type: functional, organism-based; conditions: dose 50-150 mg/kg, time 7.0 day
# Mus musculus [9] = assay: Anti-inflammatory activity in ovalbumin-induced allergic rhinitis male Balb/c mouse model assessed as reduction in IgE expression at 150 mg/kg, po administered via gavage for 7 days (reference value: 0.268 +/- 0.045); assay type: functional; conditions: time 7 day
# RAW264.7 [10] = assay: Anti-inflammatory activity in LPS-induced mouse RAW264.7 cells assessed as reduction in IL-1beta mRNA expression incubated for 24 hrs by qRT-PCR analysis; assay type: functional, cell-based; conditions: dose 5-20 µM
# RAW264.7 [11] = assay: Downregulation of P-IKBalpha protein expression in LPS-induced mouse RAW264.7 cells at 5 to 20 uM by Western blotting analysis; assay type: functional, cell-based; conditions: dose 5-20 µM
# Mus musculus [12] = assay: Anti-inflammatory activity in ovalbumin-induced allergic rhinitis male Balb/c mouse model assessed as decrease in p-p38 intranuclear expression in nasal mucosal at 50 to 150 mg/kg, po administered via gavage for 7 days by immunofluorescence staining based analysis; assay type: functional, organism-based; conditions: dose 50-150 mg/kg, time 7.0 day
# Mus musculus [13] = assay: Anti-inflammatory activity in ovalbumin-induced allergic rhinitis male Balb/c mouse assessed as reduction in number of goblet cells in nasal mucosal tissues at 50 to 150 mg/kg, po administered via gavage for 7 days by PAS staining based analysis; assay type: functional, organism-based; conditions: dose 50-150 mg/kg, time 7.0 day
# Mus musculus [14] = assay: Anti-inflammatory activity in ovalbumin-induced allergic rhinitis male Balb/c mouse model assessed as reduction in IgE expression at 100 mg/kg, po administered via gavage for 7 days (reference value: 0.268 +/- 0.045); assay type: functional; conditions: time 7 day
# Mus musculus [15] = assay: Anti-inflammatory activity in ovalbumin-induced allergic rhinitis male Balb/c mouse assessed as reduction in number of mast cells on nasal lavage fluid at 50 to 150 mg/kg, po administered via gavage for 7 days by giemsa staining based analysis; assay type: functional, organism-based; conditions: dose 50-150 mg/kg, time 7.0 day
# RAW264.7 [16] = assay: Cytotoxicity against mouse RAW264.7 cells assessed as reduction in cell viability at 10 uM incubated for 24 hrs by CCK-8 assay; assay type: toxicity, cell-based; conditions: raw264.7, 24 h
# RAW264.7 [17] = assay: Downregulation of p-P38 expression in mouse RAW264.7 cells at 5 to 20 uM by immunofluorescence staining based analysis; assay type: functional, cell-based; conditions: dose 5-20 µM
# Mus musculus [18] = assay: Anti-inflammatory activity in ovalbumin-induced allergic rhinitis male Balb/c mouse assessed as reduction in number of mast cells on nasal lavage fluid at 150 mg/kg, po administered via gavage for 7 days by giemsa staining based analysis; assay type: functional, organism-based; conditions: time 7.0 day
# Mus musculus [19] = assay: Anti-inflammatory activity in ovalbumin-induced allergic rhinitis male Balb/c mouse assessed as reduction in inflammation of nasal mucosal tissue at 50 to 150 mg/kg, po administered via gavage for 7 days by H and E staining based analysis; assay type: functional, organism-based; conditions: dose 50-150 mg/kg, time 7.0 day
# RAW264.7 [20] = assay: Inhibition of IL-6 (unknown origin) in mouse RAW264.7 relative to control; assay type: cell-based; conditions: dose or concentration not given here
# RAW264.7 [21] = assay: Downregulation of p-ERK protein expression in LPS-induced mouse RAW264.7 cells at 5 to 20 uM by Western blotting analysis; assay type: functional, cell-based; conditions: dose 5-20 µM
# Mus musculus [22] = assay: Anti-inflammatory activity in ovalbumin-induced allergic rhinitis male Balb/c mouse model assessed as reduction in IgE expression at 50 mg/kg, po administered via gavage for 7 days (reference value: 0.268 +/- 0.045); assay type: functional; conditions: time 7 day
# RAW264.7 [23] = assay: Downregulation of P-P65 protein expression in LPS-induced mouse RAW264.7 cells at 5 to 20 uM by Western blotting analysis; assay type: functional, cell-based; conditions: dose 5-20 µM
# RAW264.7 [24] = assay: Downregulation of p-JNK protein expression in LPS-induced mouse RAW264.7 cells at 5 to 20 uM by Western blotting analysis; assay type: functional, cell-based; conditions: dose 5-20 µM
# Mus musculus [25] = assay: Anti-inflammatory activity in ovalbumin-induced allergic rhinitis male Balb/c mouse model assessed as reduction in nose scratching administered orally via gavage for 7 days; assay type: functional, organism-based; conditions: dose 50-150 mg/kg, route po, time 7.0 day
# RAW264.7 [26] = assay: Downregulation of CB1 R expression in LPS-induced mouse RAW264.7 cells at 5 to 20 uM by immunofluorescence staining based analysis; assay type: functional, cell-based; conditions: dose 5-20 µM
# RAW264.7 [27] = assay: Downregulation of p-P38 protein expression in LPS-induced mouse RAW264.7 cells at 5 to 20 uM by Western blotting analysis; assay type: functional, cell-based; conditions: dose 5-20 µM
# RAW264.7 [28] = assay: Downregulation of p-P38 intranuclear expression in mouse RAW264.7 cells at 5 to 20 uM by immunofluorescence staining based analysis; assay type: functional, cell-based; conditions: dose 5-20 µM
# Mus musculus [29] = assay: Anti-inflammatory activity in ovalbumin-induced allergic rhinitis male Balb/c mouse model assessed as reduction in serum histamine expression at 150 mg/kg, po administered via gavage for 7 days by ELISA; assay type: functional, organism-based; conditions: time 7.0 day
# Mus musculus [30] = assay: Anti-inflammatory activity in ovalbumin-induced allergic rhinitis male Balb/c mouse assessed as reduction in number of eosinophils on nasal lavage fluid at 50 to 150 mg/kg, po administered via gavage for 7 days by giemsa staining based analysis; assay type: functional, organism-based; conditions: dose 50-150 mg/kg, time 7.0 day
# RAW264.7 [31] = assay: Downregulation of CB1 R expression in LPS-induced mouse RAW264.7 cells by immunofluorescence staining based analysis; assay type: functional, cell-based
# Mus musculus [32] = assay: Anti-inflammatory activity in ovalbumin-induced allergic rhinitis male Balb/c mouse assessed as reduction in number of eosinophils on nasal lavage fluid at 5 mg/kg, po administered via gavage for 7 days by giemsa staining based analysis; assay type: functional, organism-based; conditions: time 7.0 day
# Mus musculus [33] = assay: Anti-inflammatory activity in ovalbumin-induced allergic rhinitis male Balb/c mouse assessed as reduction in number of mast cells on nasal lavage fluid at 5 mg/kg, po administered via gavage for 7 days by giemsa staining based analysis; assay type: functional, organism-based; conditions: time 7.0 day
# Mus musculus [34] = assay: Anti-inflammatory activity in ovalbumin-induced allergic rhinitis male Balb/c mouse assessed as reduction in number of cells on nasal lavage fluid at 5 mg/kg, po administered via gavage for 7 days by giemsa staining based analysis; assay type: functional, organism-based; conditions: time 7.0 day
# RAW264.7 [35] = assay: Downregulation of p-P38 intranuclear expression in mouse RAW264.7 cells by immunofluorescence staining based analysis; assay type: functional, cell-based
# Mus musculus [36] = assay: Anti-inflammatory activity in ovalbumin-induced allergic rhinitis male Balb/c mouse assessed as reduction in inflammation of nasal mucosal tissue at 5 mg/kg, po administered via gavage for 7 days by H and E staining based analysis; assay type: functional, organism-based; conditions: time 7.0 day
# RAW264.7 [37] = assay: Downregulation of p-ERK protein expression in LPS-induced mouse RAW264.7 cells by Western blotting analysis; assay type: functional, cell-based
# RAW264.7 [38] = assay: Downregulation of P-IKBalpha protein expression in LPS-induced mouse RAW264.7 cells by Western blotting analysis; assay type: functional, cell-based
# Mus musculus [39] = assay: Anti-inflammatory activity in ovalbumin-induced allergic rhinitis male Balb/c mouse model assessed as decrease in p-p38 intranuclear expression in nasal mucosal at 5 mg/kg, po administered via gavage for 7 days by immunofluorescence staining based analysis; assay type: functional, organism-based; conditions: time 7.0 day
# RAW264.7 [40] = assay: Downregulation of p-JNK protein expression in LPS-induced mouse RAW264.7 cells by Western blotting analysis; assay type: functional, cell-based
# Mus musculus [41] = assay: Anti-inflammatory activity in ovalbumin-induced allergic rhinitis male Balb/c mouse model assessed as reduction in IL-4 expression in nasal lavage fluid at 5 mg/kg, po administered via gavage for 7 days by ELISA; assay type: functional, organism-based; conditions: time 7.0 day
# Mus musculus [42] = assay: Anti-inflammatory activity in ovalbumin-induced allergic rhinitis male Balb/c mouse model assessed as reduction in nose scratching at 5 mg/kg, po administered via gavage for 7 days; assay type: functional, organism-based; conditions: time 7.0 day
# RAW264.7 [43] = assay: Downregulation of p-P38 protein expression in LPS-induced mouse RAW264.7 cells by Western blotting analysis; assay type: functional, cell-based
# RAW264.7 [44] = assay: Downregulation of P-P65 protein expression in LPS-induced mouse RAW264.7 cells by Western blotting analysis; assay type: functional, cell-based
# Mus musculus [45] = assay: Anti-inflammatory activity in ovalbumin-induced allergic rhinitis male Balb/c mouse model assessed as reduction in serum histamine expression at 5 mg/kg, po administered via gavage for 7 days by ELISA; assay type: functional, organism-based; conditions: time 7.0 day
# Mus musculus [46] = assay: Anti-inflammatory activity in ovalbumin-induced allergic rhinitis male Balb/c mouse model assessed as reduction in IgE expression at 5 mg/kg, po administered via gavage for 7 days (reference value: 0.268 +/- 0.045); assay type: functional; conditions: time 7 day
# Mus musculus [47] = assay: Anti-inflammatory activity in ovalbumin-induced allergic rhinitis male Balb/c mouse model assessed as reduction in sneezing at 5 mg/kg, po administered via gavage for 7 days; assay type: functional, organism-based; conditions: time 7.0 day
# RAW264.7 [48] = assay: Downregulation of p-P38 expression in mouse RAW264.7 cells by immunofluorescence staining based analysis; assay type: functional, cell-based
# Mus musculus [49] = assay: Anti-inflammatory activity in ovalbumin-induced allergic rhinitis male Balb/c mouse assessed as reduction in number of goblet cells in nasal mucosal tissues at 5 mg/kg, po administered via gavage for 7 days by PAS staining based analysis; assay type: functional, organism-based; conditions: time 7.0 day
compound,measurement,setting,value
CN(/C=C\c1ccccc1)C(=O)c1nc(C2CCCCC2)n(-c2ccccc2)n1,Activity,Mus musculus [1],Active; Most Effective Group Compared To Other Dosing Group
same,Activity,RAW264.7 [2],Dose-dependent-effect
same,inhibition,RAW264.7 [3],77%
same,Activity,RAW264.7 [4],Dose-dependent-effect
same,Activity,Mus musculus [5],Dose-dependent-effect
same,Activity,Mus musculus [6],Active
same,Activity,Mus musculus [7],Active
same,Activity,Mus musculus [8],Active
same,Activity,Mus musculus [9],0.182
same,Activity,RAW264.7 [10],Dose-dependent-effect
same,Activity,RAW264.7 [11],Active
same,Activity,Mus musculus [12],Active
same,Activity,Mus musculus [13],Active
same,Activity,Mus musculus [14],0.212
same,Activity,Mus musculus [15],Active
same,Activity,RAW264.7 [16],Non-toxic
same,Activity,RAW264.7 [17],Active
same,Activity,Mus musculus [18],Active; Most Effective Group Compared To Other Dosing Group
same,Activity,Mus musculus [19],Active
same,inhibition,RAW264.7 [20],88%
same,Activity,RAW264.7 [21],Active
same,Activity,Mus musculus [22],0.192
same,Activity,RAW264.7 [23],Active
same,Activity,RAW264.7 [24],Active
same,Activity,Mus musculus [25],Dose-dependent-effect
same,Activity,RAW264.7 [26],Active
same,Activity,RAW264.7 [27],Active
same,Activity,RAW264.7 [28],Active
same,Activity,Mus musculus [29],Active; More Effective Than Other Dosing Group
same,Activity,Mus musculus [30],Active
C[C@@H]1C[C@H]2[C@@H]3CCC4=CC(=O)C=C[C@]4(C)[C@@]3(F)[C@@H](O)C[C@]2(C)[C@@]1(O)C(=O)CO [DEXAMETHASONE],Activity,RAW264.7 [31],Active
same,Activity,Mus musculus [32],Active
same,Activity,Mus musculus [33],Active
same,Activity,Mus musculus [34],Active
same,Activity,RAW264.7 [35],Active
same,Activity,Mus musculus [36],Active
same,Activity,RAW264.7 [37],Active
same,Activity,RAW264.7 [38],Active
same,Activity,Mus musculus [39],Active
same,Activity,RAW264.7 [40],Active
same,Activity,Mus musculus [41],Active
same,Activity,Mus musculus [42],Active
same,Activity,RAW264.7 [43],Active
same,Activity,RAW264.7 [44],Active
same,Activity,Mus musculus [45],Active
same,Activity,Mus musculus [46],0.126
same,Activity,Mus musculus [47],Active
same,Activity,RAW264.7 [48],Active
same,Activity,Mus musculus [49],Active
